Consider eight molecules from patent EP2258713A1, “Antiviral Triterpene Derivatives” (priority 2009, dated 2010).

Read-outs that look alike come from different tables or passages of the source.

The subject of series [1] is H3N2 Influenza A Virus. The class given is cell-based.
The subject of series [2] is TNFα. Briefly: Expression of TNFα in cells (general statement, no data shown). The class given is cell-based. The settings on record: no values. From the text: A person skilled in the art would be able to identify TNFα-downregulating compounds of the invention by contacting one or more cells with a compound of the invention and assaying for the presence of one TNFα and comparing the levels of TNFα in the one or more cells with that of controls. Such methods are known in the art and are described in the examples herein below.

Series [3] concerns MDCK cells. Description: Cytotoxicity determination: cell viability of uninfected cells, CellTiter-Glo luminescent cell viability assay. The settings on record: 48 h; for Viability %: MDCK cells. (In general: In ATP-based viability assays light output follows the ATP content of the culture.)
Series [4] concerns MDCK cells. The settings on record: dog, 48 h.
Series [5] relates to murine retinal ganglion cells. The settings on record: cited from earlier work.
In series [6] the test system is CK-2. The settings on record: 30 µM; cited from earlier work.
Series [7] concerns PKC and CK-I. The settings on record: 100 µM; cited from earlier work.

For the molecule `CON(C1OC(CO)C(O)C(O)C1O)C1CCC2(C)C(CCC3(C)C2C(=O)C=C2C4CC(C)(C(=O)O)CCC4(C)CCC23C)C1(C)C` [Compound 1, (3S,18R,20S)-11-Oxo-3-[(beta-D-glucopyranosyl)methoxamino]-olean-12-en-29-oic acid], the “cytopathic effect associated with virus replication in cell culture” value in series [1] (general statement, no values) is given as “reduce the cytopathic effect”. Moreover, the “expression of TNFα” value in series [2] is “inhibit the expression of TNFα”.
For the molecule `COC(=O)[C@H]1O[C@@H](SCCN[C@H]2CC[C@]3(C)[C@H]4C(=O)C=C5[C@@H]6C[C@@](C)(C(=O)O)CC[C@]6(C)CC[C@@]5(C)[C@]4(C)CC[C@H]3C2(C)C)[C@H](O)[C@@H](O)[C@@H]1O` [Compound 2, (3S,18R,20S)-3-[2-S-(Methyl-1-thio-beta-D-glucopyranosyluronate)-ethyl-amino]-11-oxo-olean-12-en-29-oic acid], the values for the Viability % in series [3] (25 µM) and in series [3] (250 µM) were 114.6% and 101.2%, respectively.
With `CC1(C)[C@@H](NCCS[C@@H]2O[C@H](C(=O)O)[C@@H](O)[C@H](O)[C@H]2O)CC[C@]2(C)[C@H]3C(=O)C=C4[C@@H]5C[C@@](C)(C(=O)O)CC[C@]5(C)CC[C@@]4(C)[C@]3(C)CC[C@@H]12` [Compound 3, (3S,18R,20S)-3-[2-(β-D-glucopyranuronosylthio)-ethyl-amino]-11-oxo-olean-12-en-29-oic acid], the values for the Viability % in series [3] (25 µM) and in series [3] (250 µM) were 103.5% and 105.5%, respectively.
As for `COC(=O)[C@H]1O[C@@H](SCCN(C(C)=O)[C@H]2CC[C@]3(C)[C@H]4C(=O)C=C5[C@@H]6C[C@@](C)(C(=O)O)CC[C@]6(C)CC[C@@]5(C)[C@]4(C)CC[C@H]3C2(C)C)[C@H](O)[C@@H](O)[C@@H]1O` [Compound 4, (3S,18R,20S)-3-{N-Acetyl-N-[2-S-(methyl-1-thio-beta-D-glucopyranosyluronate)-ethyl]-amino}-11-oxo-olean-12-en-29-oic acid], the Viability % in series [3] (25 µM) is recorded as 104.4%; in series [3] (250 µM) it was 99.4%.
For the molecule `CC(=O)N(CCS[C@@H]1O[C@H](C(=O)O)[C@@H](O)[C@H](O)[C@H]1O)[C@H]1CC[C@]2(C)[C@H]3C(=O)C=C4[C@@H]5C[C@@](C)(C(=O)O)CC[C@]5(C)CC[C@@]4(C)[C@]3(C)CC[C@H]2C1(C)C` [Compound 5, (3S,18R,20S)-3-{N-Acetyl-N-[2-(beta-D-glucopyranuronosylthio)-ethyl]-amino}-11-oxo-olean-12-en-29-oic acid], the Viability % worked out at 106.6% in series [3] (25 µM) and 93.5% in series [3] (250 µM).
In the case of `COC(=O)CCC(=O)N(CCS[C@@H]1O[C@H](C(=O)OC)[C@@H](O)[C@H](O)[C@H]1O)[C@H]1CC[C@]2(C)[C@H]3C(=O)C=C4[C@@H]5C[C@@](C)(C(=O)O)CC[C@]5(C)CC[C@@]4(C)[C@]3(C)CC[C@H]2C1(C)C` [Compound 6, (3S,18R,20S)-3-{N-(4-Methoxy-1,4-dioxobutyl)-N-[2-S-(methyl-1-thio-beta-D-glucopyranosyluronate)-ethyl]-amino}-11-oxo-olean-12-en-29-oic acid], the Viability % worked out at 107.3% in series [3] (25 µM) and 106.3% in series [3] (250 µM).
`CC1(C)[C@@H](O)CC[C@]2(C)[C@H]3C(=O)C=C4[C@@H]5C[C@@](C)(C(=O)O)CC[C@]5(C)CC[C@@]4(C)[C@]3(C)CC[C@@H]12` [Glycyrrhetinic acid]: the Viability % in series [4] (25 µM) was 0.2%; in series [4] (250 µM), 0.0%. In addition, in series [5], the postsynaptic light response is 30 % of control. Also, the “phosphorylation of C3α by CK-2” value in series [6] is listed as “completely inhibited”.
Turning to `CC1(C)[C@@H](O[C@H]2O[C@H](C(=O)O)[C@@H](O)[C@H](O)[C@H]2O[C@@H]2O[C@H](C(=O)O)[C@@H](O)[C@H](O)[C@H]2O)CC[C@]2(C)[C@H]3C(=O)C=C4[C@@H]5C[C@@](C)(C(=O)O)CC[C@]5(C)CC[C@@]4(C)[C@]3(C)CC[C@@H]12` [Glycyrrhizin, glycyrrhizin, reference compound], the “phosphorylation of HMGB1/2 by PKC and CK-I” value in series [7] is “completely inhibits”. The figures for the Viability % in series [3] (25 µM), in series [3] (250 µM) and in series [3] (1500 µM) were 100.9%, 105.3% and 101.7%, respectively. In addition, the “cell viability of uninfected treated cells versus uninfected untreated cells” value in series [3] (1.5 mM, uninfected MDCK cells) is on record as “not significantly different”. For the same molecule, in series [1], the “reduction of the CPE (cytopathic effect)” value amounted to 57%.
